{
  "source": "ChEMBL document CHEMBL1201862",
  "about": "“PubChem BioAssay data set” (2004)",
  "key": {"[1]": {"target": "T1, Mannose-6-phosphate isomerase (Homo sapiens, UniProt P34949)", "T1 sequence (P34949 whole entry)": "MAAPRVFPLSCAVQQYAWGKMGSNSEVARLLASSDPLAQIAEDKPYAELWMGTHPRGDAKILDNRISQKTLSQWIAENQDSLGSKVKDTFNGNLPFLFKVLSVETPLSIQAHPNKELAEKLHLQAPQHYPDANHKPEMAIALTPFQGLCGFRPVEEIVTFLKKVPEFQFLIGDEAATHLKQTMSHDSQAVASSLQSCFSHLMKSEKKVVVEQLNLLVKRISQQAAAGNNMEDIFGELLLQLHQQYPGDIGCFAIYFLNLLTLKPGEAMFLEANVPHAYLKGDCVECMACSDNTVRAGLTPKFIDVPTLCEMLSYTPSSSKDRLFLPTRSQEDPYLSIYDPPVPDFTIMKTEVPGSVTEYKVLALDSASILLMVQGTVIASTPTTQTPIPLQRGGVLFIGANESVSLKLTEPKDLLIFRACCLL", "experiment": "phosphomannose isomerase inhibition – biochemical, fluorescence intensity, confirmation (AID 1535)"}, "[2]": {"target": "T1, Mannose-6-phosphate isomerase", "experiment": "MPI enzyme activity inhibition – biochemical, fluorescence intensity, coupled assay, primary screen (AID 1209)"}, "Phosphomannomutase 2": {"target": "Phosphomannomutase 2 (Homo sapiens, UniProt O15305)", "sequence (O15305 whole entry)": "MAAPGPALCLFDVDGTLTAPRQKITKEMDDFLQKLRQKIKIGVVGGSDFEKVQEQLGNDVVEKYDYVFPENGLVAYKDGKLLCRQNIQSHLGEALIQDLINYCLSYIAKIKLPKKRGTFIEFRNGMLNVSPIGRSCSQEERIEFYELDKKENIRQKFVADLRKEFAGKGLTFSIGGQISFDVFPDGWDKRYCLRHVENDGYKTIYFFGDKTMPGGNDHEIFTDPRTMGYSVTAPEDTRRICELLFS", "experiment": "Counter screen SAR assay for PMM2 inhibitors via a fluorescence intensity assay. [Related pubchem assays (depositor defined):AID1545, AID1574]"}, "[3]": {"target": "T2, Heat shock factor protein 1 (Mus musculus, UniProt P38532)", "T2 sequence (P38532 whole entry)": "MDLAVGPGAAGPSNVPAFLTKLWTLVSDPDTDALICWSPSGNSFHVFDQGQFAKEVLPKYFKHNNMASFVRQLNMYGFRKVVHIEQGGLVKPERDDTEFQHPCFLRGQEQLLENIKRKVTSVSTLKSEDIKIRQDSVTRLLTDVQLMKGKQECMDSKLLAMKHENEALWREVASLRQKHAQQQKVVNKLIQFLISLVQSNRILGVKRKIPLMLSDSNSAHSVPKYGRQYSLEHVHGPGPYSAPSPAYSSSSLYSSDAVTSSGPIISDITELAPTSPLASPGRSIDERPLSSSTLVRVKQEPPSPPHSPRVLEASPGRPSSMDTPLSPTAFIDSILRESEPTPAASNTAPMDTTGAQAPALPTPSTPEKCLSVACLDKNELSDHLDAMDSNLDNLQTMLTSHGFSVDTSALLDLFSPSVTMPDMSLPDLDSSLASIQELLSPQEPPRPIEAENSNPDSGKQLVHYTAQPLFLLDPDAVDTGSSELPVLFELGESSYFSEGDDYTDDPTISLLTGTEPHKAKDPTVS", "experiment": "decrease of HSF1-responsive luciferase luminescence – cell-based, NIH3T3, dose retest, confirmation (AID 2382);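 note: NIH3T3 fibroblasts with HSF1-driven luciferase reporter stressed by proteasome inhibitor MG132; luminescence from HSF1-driven luciferase expression after 8 hours of MG132 stress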", "type": "functional"}, "[4]": {"target": "Polyadenylate-binding protein 1 (Homo sapiens, UniProt P11940)", "sequence (P11940 whole entry)": "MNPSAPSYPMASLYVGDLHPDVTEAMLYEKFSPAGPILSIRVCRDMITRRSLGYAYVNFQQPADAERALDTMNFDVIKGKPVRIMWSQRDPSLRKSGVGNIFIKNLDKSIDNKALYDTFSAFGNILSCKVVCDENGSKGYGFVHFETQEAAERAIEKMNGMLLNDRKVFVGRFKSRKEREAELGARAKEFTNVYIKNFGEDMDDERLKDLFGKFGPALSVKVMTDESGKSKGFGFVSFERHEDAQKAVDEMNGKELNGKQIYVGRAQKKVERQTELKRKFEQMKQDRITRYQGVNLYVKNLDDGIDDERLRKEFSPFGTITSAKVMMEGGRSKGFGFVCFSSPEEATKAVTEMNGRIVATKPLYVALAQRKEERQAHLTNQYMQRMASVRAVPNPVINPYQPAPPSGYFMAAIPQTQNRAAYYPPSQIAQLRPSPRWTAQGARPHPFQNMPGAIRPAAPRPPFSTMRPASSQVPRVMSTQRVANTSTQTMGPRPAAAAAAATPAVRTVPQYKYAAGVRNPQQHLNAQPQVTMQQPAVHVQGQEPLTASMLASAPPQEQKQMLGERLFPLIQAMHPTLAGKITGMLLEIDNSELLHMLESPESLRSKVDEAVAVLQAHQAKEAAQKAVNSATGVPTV", "experiment": "PABP inhibition in translation initiation, SAR follow-up (AID 435018)", "type": "functional"}, "[5]": {"target": "Eukaryotic translation initiation factor 4H (Homo sapiens, UniProt Q15056)", "experiment": "inhibitors of translation initiation factor eIF4H – SAR follow-up (AID 435011)", "type": "functional"}, "[6]": {"target": "T3, Dual specificity protein phosphatase 3 (Homo sapiens, UniProt P51452)", "T3 sequence (P51452 whole entry)": "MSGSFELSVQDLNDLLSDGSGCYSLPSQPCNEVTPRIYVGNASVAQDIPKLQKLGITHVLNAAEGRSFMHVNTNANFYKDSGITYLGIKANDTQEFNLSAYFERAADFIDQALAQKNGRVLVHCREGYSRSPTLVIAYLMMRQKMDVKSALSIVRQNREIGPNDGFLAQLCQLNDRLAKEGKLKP", "experiment": "VHR1 phosphatase inhibitors, biochemical (AID 1878)"}, "[7]": {"target": "T4, Low molecular weight phosphotyrosine protein phosphatase (Homo sapiens, UniProt P24666)", "T4 sequence (P24666 whole entry)": "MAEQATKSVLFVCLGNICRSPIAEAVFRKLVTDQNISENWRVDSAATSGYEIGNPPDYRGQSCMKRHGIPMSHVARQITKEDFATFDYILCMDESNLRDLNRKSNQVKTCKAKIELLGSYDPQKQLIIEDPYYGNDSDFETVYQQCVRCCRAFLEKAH", "type": "functional", "settings": "read-out: IC50_Mean"}, "[8]": {"target": "T3, Dual specificity protein phosphatase 3", "experiment": "VHR phosphatase inhibition, dose response, selectivity assay for STEP inhibitor project, biochemical (AID 602374)", "type": "functional", "settings": "read-out: IC50_Mean"}, "[9]": {"experiment": "viability of uninfected HEp-2 cells – cell-based, HTS, cytotoxicity control for RSV inhibitor project, dose response (AID 2410)", "type": "functional", "settings": "human respiratory syncytial virus"}, "[10]": {"target": "T5, Carboxy-terminal domain RNA polymerase II polypeptide A small phosphatase 1 (Homo sapiens, UniProt Q9GZU7)", "T5 sequence (Q9GZU7 whole entry)": "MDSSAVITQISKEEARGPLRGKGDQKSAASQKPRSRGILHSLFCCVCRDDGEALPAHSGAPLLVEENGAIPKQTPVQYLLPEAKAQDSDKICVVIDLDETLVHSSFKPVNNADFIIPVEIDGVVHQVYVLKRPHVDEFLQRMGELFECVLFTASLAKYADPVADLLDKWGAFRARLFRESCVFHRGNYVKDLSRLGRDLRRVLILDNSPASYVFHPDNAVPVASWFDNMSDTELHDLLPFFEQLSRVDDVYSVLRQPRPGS", "experiment": "CTDSP1 inhibitors, concentration-response, biochemical, absorbance readout, ultra-high-throughput screen actives (AID 540297)", "type": "functional"}, "[11]": {"target": "T4, Low molecular weight phosphotyrosine protein phosphatase", "type": "functional", "settings": "read-out: IC50_Mean", "remark": "listed apart in the source"}, "[12]": {"target": "T6, Dual specificity protein phosphatase 6 (Rattus norvegicus, UniProt Q64346)", "T6 sequence (Q64346 whole entry)": "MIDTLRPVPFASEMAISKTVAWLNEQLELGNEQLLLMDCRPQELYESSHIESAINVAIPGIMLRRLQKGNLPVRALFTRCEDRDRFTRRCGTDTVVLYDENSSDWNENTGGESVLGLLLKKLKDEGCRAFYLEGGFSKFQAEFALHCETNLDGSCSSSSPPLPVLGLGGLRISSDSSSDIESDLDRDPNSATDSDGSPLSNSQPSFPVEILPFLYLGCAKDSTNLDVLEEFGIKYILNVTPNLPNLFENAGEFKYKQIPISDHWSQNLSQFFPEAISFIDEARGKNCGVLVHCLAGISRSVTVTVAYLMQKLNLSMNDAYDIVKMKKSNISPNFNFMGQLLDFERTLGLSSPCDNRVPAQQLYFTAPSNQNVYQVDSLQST", "experiment": "inhibition of rat DUSP6 enzyme activity – biochemical, in vitro, primary screen (AID 425)"}, "[13]": {"target": "T7, Tyrosine-protein phosphatase non-receptor type 22 (Homo sapiens, UniProt Q9Y2R2)", "T7 sequence (Q9Y2R2 whole entry)": "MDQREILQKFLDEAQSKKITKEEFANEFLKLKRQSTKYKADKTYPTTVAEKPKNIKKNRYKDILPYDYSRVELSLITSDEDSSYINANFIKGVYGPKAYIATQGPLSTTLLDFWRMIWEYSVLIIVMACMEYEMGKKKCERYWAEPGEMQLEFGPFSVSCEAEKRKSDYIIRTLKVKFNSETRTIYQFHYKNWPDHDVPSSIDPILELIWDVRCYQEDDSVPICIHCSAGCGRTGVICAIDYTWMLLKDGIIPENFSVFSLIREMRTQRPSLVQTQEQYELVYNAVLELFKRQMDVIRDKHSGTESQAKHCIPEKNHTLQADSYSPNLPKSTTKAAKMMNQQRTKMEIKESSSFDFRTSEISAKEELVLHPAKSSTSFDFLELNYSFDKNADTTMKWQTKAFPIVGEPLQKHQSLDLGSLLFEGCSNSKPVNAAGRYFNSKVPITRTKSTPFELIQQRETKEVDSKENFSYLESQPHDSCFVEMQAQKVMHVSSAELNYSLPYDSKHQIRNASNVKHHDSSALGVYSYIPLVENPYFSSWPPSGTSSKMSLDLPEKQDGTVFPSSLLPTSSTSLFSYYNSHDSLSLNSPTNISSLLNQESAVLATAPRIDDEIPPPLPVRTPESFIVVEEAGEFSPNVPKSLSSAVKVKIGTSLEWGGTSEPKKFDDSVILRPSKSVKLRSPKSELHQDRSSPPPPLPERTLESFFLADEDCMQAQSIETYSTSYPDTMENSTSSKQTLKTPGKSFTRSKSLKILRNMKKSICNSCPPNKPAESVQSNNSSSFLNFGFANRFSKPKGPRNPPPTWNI", "experiment": "PTPN22 enzyme inhibitors – biochemical, fluorescence, LYP catalytic domain, selectivity assay for LMPTP inhibitor project, dose response (AID 652006)", "type": "functional", "settings": "read-out: IC50_Mean"}, "[14]": {"target": "T8, Tyrosine-protein phosphatase non-receptor type 5 (Homo sapiens, UniProt P54829)", "T8 sequence (P54829 whole entry)": "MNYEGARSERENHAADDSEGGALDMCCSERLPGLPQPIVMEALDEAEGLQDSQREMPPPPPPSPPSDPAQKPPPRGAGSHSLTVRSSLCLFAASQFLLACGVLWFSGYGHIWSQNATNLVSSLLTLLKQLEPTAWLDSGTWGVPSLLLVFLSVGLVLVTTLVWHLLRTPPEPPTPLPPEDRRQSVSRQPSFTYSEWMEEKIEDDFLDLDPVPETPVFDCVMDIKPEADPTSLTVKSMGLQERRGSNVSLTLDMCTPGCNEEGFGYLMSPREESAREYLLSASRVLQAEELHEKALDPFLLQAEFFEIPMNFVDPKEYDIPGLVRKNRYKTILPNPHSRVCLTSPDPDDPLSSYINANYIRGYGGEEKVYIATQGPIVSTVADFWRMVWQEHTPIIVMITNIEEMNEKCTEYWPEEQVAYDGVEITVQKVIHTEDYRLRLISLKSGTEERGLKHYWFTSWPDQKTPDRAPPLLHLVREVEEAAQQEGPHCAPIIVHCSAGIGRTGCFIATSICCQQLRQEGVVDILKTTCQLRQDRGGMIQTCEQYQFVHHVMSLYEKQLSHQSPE", "experiment": "PTPN5 enzyme inhibition – biochemical, fluorescence intensity, uHTS hits, confirmation (AID 602372)", "type": "functional", "settings": "read-out: IC50_Mean"}, "[15]": {"target": "T3, Dual specificity protein phosphatase 3", "experiment": "VHR1 phosphatase inhibitors, primary screen, biochemical, absorbance, uHTS (AID 1654)"}, "[16]": {"target": "Envelope glycoprotein gp160 (Human immunodeficiency virus 1, UniProt Q6QLK5)", "sequence (Q6QLK5 whole entry, the tested form may be a part)": "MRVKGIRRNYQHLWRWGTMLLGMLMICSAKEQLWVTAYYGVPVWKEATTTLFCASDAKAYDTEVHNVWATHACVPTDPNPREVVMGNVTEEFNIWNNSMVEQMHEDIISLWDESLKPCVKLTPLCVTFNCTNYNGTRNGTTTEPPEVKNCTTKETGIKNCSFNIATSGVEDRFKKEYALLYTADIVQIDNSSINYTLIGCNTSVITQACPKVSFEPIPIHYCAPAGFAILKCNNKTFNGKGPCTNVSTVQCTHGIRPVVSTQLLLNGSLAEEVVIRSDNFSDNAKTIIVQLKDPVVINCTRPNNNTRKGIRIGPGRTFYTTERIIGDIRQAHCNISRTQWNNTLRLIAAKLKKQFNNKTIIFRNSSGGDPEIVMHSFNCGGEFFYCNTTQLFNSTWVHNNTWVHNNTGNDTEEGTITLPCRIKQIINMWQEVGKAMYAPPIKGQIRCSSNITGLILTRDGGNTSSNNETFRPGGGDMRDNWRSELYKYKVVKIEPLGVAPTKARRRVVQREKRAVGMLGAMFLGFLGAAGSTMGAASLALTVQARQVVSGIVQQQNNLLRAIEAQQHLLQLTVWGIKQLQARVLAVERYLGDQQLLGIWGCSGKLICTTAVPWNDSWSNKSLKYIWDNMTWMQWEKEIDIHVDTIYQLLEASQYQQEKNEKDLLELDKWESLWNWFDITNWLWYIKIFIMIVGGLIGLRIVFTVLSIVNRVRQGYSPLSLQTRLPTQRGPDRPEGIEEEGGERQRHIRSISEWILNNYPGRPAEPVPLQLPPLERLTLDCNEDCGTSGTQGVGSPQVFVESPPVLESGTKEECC", "experiment": "cell-free HIV fusion peptide-binding blockers – biochemical, uHTS, fluorescence dequenching, […] (AID 1986)"}, "[17]": {"target": "T9, Tyrosine-protein phosphatase non-receptor type 11 (Homo sapiens, UniProt Q06124)", "T9 sequence (Q06124 whole entry)": "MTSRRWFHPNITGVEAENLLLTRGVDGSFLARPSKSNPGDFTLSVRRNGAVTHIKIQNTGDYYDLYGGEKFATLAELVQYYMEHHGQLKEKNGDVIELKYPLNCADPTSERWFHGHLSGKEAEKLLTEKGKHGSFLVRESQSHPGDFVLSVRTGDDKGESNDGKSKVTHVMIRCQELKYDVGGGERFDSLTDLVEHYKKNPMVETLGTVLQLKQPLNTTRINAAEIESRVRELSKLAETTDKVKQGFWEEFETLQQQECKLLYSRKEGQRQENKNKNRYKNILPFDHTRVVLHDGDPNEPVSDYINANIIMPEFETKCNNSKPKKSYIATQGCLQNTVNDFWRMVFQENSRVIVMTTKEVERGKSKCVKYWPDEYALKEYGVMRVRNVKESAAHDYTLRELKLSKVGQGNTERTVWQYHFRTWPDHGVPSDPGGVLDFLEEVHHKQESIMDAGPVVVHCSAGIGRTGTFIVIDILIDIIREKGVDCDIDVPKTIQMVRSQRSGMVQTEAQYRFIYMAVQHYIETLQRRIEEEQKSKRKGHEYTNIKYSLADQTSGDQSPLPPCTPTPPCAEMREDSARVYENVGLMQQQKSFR", "experiment": "PTPN11 enzyme inhibitors – biochemical, selectivity assay for STEP inhibitor project, dose response (AID 602367)", "type": "functional", "settings": "read-out: IC50_Mean"}, "[18]": {"target": "T7, Tyrosine-protein phosphatase non-receptor type 22", "experiment": "lymphoid phosphatase LYP inhibitors – biochemical, selectivity assay for STEP inhibitor project, dose response (AID 624241)", "type": "functional"}},
  "note": "The source made the active and inactive calls.",
  "data": [
    {"smiles": "CCc1ccc(NC2Nc3cc(C)nn3S2)cc1", "note": "(stereo not given)", "values": [
      {"measurement": "IC50", "setting": "[1]", "value": "> 50 µM (inactive)"},
      {"measurement": "IC50", "setting": "[2]", "value": "8.43 µM (active)"},
      {"measurement": "IC50", "setting": "Phosphomannomutase 2", "value": "> 100 µM (inactive)"}
    ]},
    {"smiles": "COc1ccc(CCNC(=O)CSc2ccc(-c3ccco3)nn2)cc1", "values": [
      {"measurement": "EC50", "setting": "[3]", "value": "> 195 µM (not active)"},
      {"measurement": "IC50", "setting": "[4]", "value": "> 100 µM (inactive)"},
      {"measurement": "IC50", "setting": "[5]", "value": "70.3 µM (active)"}
    ]},
    {"smiles": "CCOc1cc(/C=N/NC2=NC(=O)C(CC(=O)O)S2)ccc1OCc1ccc(Cl)cc1Cl", "note": "(stereo not given)", "values": [
      {"measurement": "IC50", "setting": "cells", "value": "34.6 µM (active)"},
      {"measurement": "IC50", "setting": "[6]", "value": "5.27 µM (active)"},
      {"measurement": "IC50", "setting": "[7]", "value": "12.1 µM (active)"},
      {"measurement": "IC50", "setting": "[8]", "value": "2.42 µM (active)"},
      {"measurement": "CC50", "setting": "[9]", "value": "20.8 µM (active)"},
      {"measurement": "IC50", "setting": "[10]", "value": "2.32 µM (active)"},
      {"measurement": "IC50", "setting": "[11]", "value": "8.68 µM (active)"},
      {"measurement": "IC50", "setting": "[12]", "value": "25.6 µM (active)"},
      {"measurement": "IC50", "setting": "[13]", "value": "22.9 µM (inactive)"},
      {"measurement": "IC50", "setting": "[14]", "value": "4.09 µM (active)"},
      {"measurement": "IC50", "setting": "[15]", "value": "8.44 µM (active)"},
      {"measurement": "IC50", "setting": "[16]", "value": "13.6 µM (active)"},
      {"measurement": "IC50", "setting": "[17]", "value": "2.2 µM (active)"},
      {"measurement": "IC50", "setting": "[18]", "value": "7.26 µM (active)"}
    ]}
  ]
}
